Consider one compound from patent US20230138400A1, “METHODS AND PHARMACEUTICAL COMPOSITIONS FOR REPROGRAMING IMMUNE ENVIRONMENT IN A SUBJECT IN NEED THEREOF” (INSERM (INSTITUT NATIONAL DE LA SANTE ET DE LA RECHERCHE …, priority 2016, published 2023).

The subject of data set [1] is naive CD8 T cells isolated from the spleen of the C57BL/6 mice. Kind of data set: Activation of naive CD8 T cells (anti-CD3, anti-CD28, IL2) in presence of DDA, flow cytometry. The data set is classed as cell-based, mouse. As to the method: (§1) FIGS. 1A-E. Sorted naive CD4 T cells were isolated from the spleen of C57BL/6 mice and activated in the indicated Th1, Th2, Treg, or Th17 polarizing conditions as described in the “Materials and methods” section”. These cells were cultured in the presence of increasing concentrations of DDA. After 96 hours, the percentage of (A) Th1: CD4+Tbet+IFNg+, (B) Th2: CD4+GATA3+[…], (C) Treg: CD4+Foxp3+IL10+ and (D) Th17: CD4+RORgt+[…], cells was measured by flow cytometry. (E) Sorted naive CD8 T cells were isolated from the spleen of the C57BL/6 mice and activated with anti-CD3, anti-CD28 and recombinant IL2. After 96 hours, the percentage of cytotoxic T CD8+GranzymB+IFNg+ cells was measured by flow cytometry.
(§2) FIGS. 2A-E. Sorted naive CD4 T cells isolated from the spleen of C57BL/6 mice were activated in Th1, Th2, Treg, or Th17 polarizing conditions as indicated in the “Materials and methods” section”. After 96 h, increasing concentrations of DDA was added on polarized CD4 T cells for 24 h. Then the percentage of (A) CD4+Tbet+IFNg+, (B) CD4+GATA3+[…], (C) CD4+Foxp3+IL10+ and (D) CD4+RORgt+[…] cells was measured by flow cytometry. (E) Sorted naïve CD8 T cells were isolated from the spleen of the C57BL/6 mice and activated with anti-CD3, anti-CD28 and recombinant IL2. After 96 h, increasing concentrations of DDA was added on activated CD8 T cells for 24 h. Then the percentage of cytotoxic T CD8+GranzymB+IFNg+ cells was measured by flow cytometry.
Cells isolation. Single-cells leukocyte suspensions were obtained from spleens of C57BL/6 mice. Naive CD4 or CD8 T cells are isolated by depletion of memory CD4 or CD8 T cells and non-CD4 or non-CD8 T cells according the manufacturer's protocol from Miltenyi kit (Miltenyi biotec). […]
Immune cell culture. […] After 5 days of culture, cells were collected and analyzed by flow cytometry. To investigate the impact of DDA on polarization of CD4 or CD8 naive T cells, DDA or the solvent vehicle was added at the beginning of culture at Day 0 or at Day 4 and cells was analyzed at day 5 by flow cytometry.
(Flow cytometry measures light scatter and fluorescence of single cells or particles in a stream.)

Data set [2] concerns tumor cells implanted in mice. Conditions: de Medina et al., Nat Commun. 2013; cited from earlier work.
The test system of a further data set is tumor side lymph nodes. Description: T cells in tumor side lymph nodes after DDA, flow cytometry. It is filed as in vivo, mouse. As to the method:
FIGS. 20A-C. The priming of T cells inside tumor side lymph node is dependent of the LXR expressed by tumor cells. Animals were grafted with tumor cells and treated as described in FIG. 2. At the end of the experiments, tumor side lymph nodes (mesenteric, auxiliary and brachial) were collected, dissociated and stimulated in vitro with 50 ng/ml of PMA (Sigma), 500 ng/ml Ionomycin (Sigma) and 1/1000 of golgi stop (ebiosicence) during 3 h at 370 to analyze by flow cytometry the phenotype of T cells. (A-C) The dots in the graphs represent the relative number of (A) T regulatory cells (CD4+ Foxp3+), (B) Th1 CD4+ cells (CD4+ T-bet+) and (C) cytotoxic CD8+ T cells (CD8+ Granzym B+ IFNγ+). The vehicle was normalized to 1. Graphs are representative of three independent experiments.
Organ dissociation and flow cytometry. The tumor-side lymph nodes were dissociated manually while for the tumor, gentlemac technology (Miltenyi) was used. Then, the suspension of tumor cells or lymph node were stimulated with 50 ng/ml of PMA (Sigma), 500 ng/ml Ionomycin (Sigma) and 1/1000 of golgi stop (ebiosicence) during 3 h at 37° C. After that, the single cell suspension were stained with the indicated fluorescent-labelled antibodies: anti mouse α-CD4, α-CD8, α-T-bet, α-Foxp3, α-granzyme B, α-PD-1, α-CD44, α-Ly6C, α-Ly6G, α-CD11b, α-CD11c, α-CD206 IL10, α-CD86 as well as live/dead stain purchased from eBioscience or Biolegend. Intracellular staining for T-bet, Foxp3, and Granzyme B, was performed according the manufacturer's protocol from Biolegend. To set the gates, flow cytometry dot plots were based on comparison with isotype control. Flow cytometry measurements of single-cells suspension were performed on a Fortessa 20X (BD pharmingen) and data were analyzed using FlowJo software.

Data set [3] concerns human and murine mammary tumor cells. Description: Exosome secretion of mammary tumor cells treated with DDA. The data set is classed as cell-based. The following applies: data not shown.
In data set [4] the test system is naive CD4 T cells isolated from the spleen of C57BL/6 mice. Description: Polarization of naive CD4 T cells (Th1, Th2, Treg, Th17 conditions) in presence of DDA, flow cytometry. The data set is classed as cell-based, mouse. As to the method: as §1, §2
Cells isolation. Single-cells leukocyte suspensions were obtained from spleens of C57BL/6 mice. Naive CD4 or CD8 T cells are isolated by depletion of memory CD4 or CD8 T cells and non-CD4 or non-CD8 T cells according the manufacturer's protocol from Miltenyi kit (Miltenyi biotec). Purities of CD4+CD44l^ow CD62L^high or CD8+CD44l^ow CD62L^high T cells after isolation were >98%
Immune cell culture. Isolated CD4+ or CD8+ T cells were cultures in 96-well flat bottom plates (0.25×10^6 cells per wells) in 0.25 ml of complete RPMI 1640 media (10% FBS, 1% penicillin/Streptomycin, 1% sodium pyruvate, 1% HEPES and 50 μM b-mercaptoethanol) in the presence of 10 μg/ml plate-bound anti-mouse CD3 (2C11) and 2 μg/ml soluble α-CD28 (LEAF) in addition to 50 ng/ml of recombinant IL-2 (e-bioscience). DDA (synthesized by Affichem) diluted in the solvent vehicle was added at increasing concentration (0-1-10-100 and 1000 nM). Cells were cultured in polarizing Th1 (20 ng/ml of recombinant […] and 10 μg/ml of anti-IL4), Th2 (50 ng/ml of recombinant IL-4, 10 μg/ml of anti-IFNg), Th17 (10 ng/ml of recombinant TGF-b, 100 ng/ml of recombinant IL-6, 10 μg/ml of anti-IFN-g and 10 μg/ml of anti-IL4) or Treg (10 ng/ml of recombinant TGF-b, 10 μg/ml of anti-IFNg and 10 μg/ml of anti-IL4) conditions. All recombinant cytokines were purchased from Peprotech and antibodies were purchased from eBioscience. After 5 days of culture, cells were collected and analyzed by flow cytometry. To investigate the impact of DDA on polarization of CD4 or CD8 naive T cells, DDA or the solvent vehicle was added at the beginning of culture at Day 0 or at Day 4 and cells was analyzed at day 5 by flow cytometry.

SMILES strings stand for the structures. Some results are limits rather than exact numbers.

For the compound `CC(C)CCCC(C)[C@H]1CCC2C3C[C@@H](NCCc4cnc[nH]4)[C@@]4(O)C[C@@H](O)CC[C@]4(C)C3CC[C@@]21C` (some centres unmarked) [DDA, 5a-hydroxy-6b-[2-(1H-imidazol-4-yl)ethylamino]cholestan-3b-ol], the “concentration from which differentiation of naïve CD8 T cells into functional cytotoxic CD8 T cells is increased” value in data set [1] (DDA added at day 0, 96 h, CD8+GranzymB+IFNg+) was no less than 10 nM. The “concentration from which differentiation of naïve CD8 T cells into functional cytotoxic CD8 T cells is increased” value in data set [1] (DDA added at day 4 for 24 h) is on record as no less than 1 nM. For the same compound, the “CD8 T cells phenotype” value in data set [1] (data not shown) is listed as “no significant effect”. Moreover, in data set [2], the animal survival result is on record as “improves animal survival”; the “growth of tumor cells implanted in mice” value is “control the growth”; the “infiltration of CD3+ T lymphocytes and CD11c+ dendritic cells” value was “increased infiltration”. Further, in the data set with tumor side lymph nodes (0.37 μg/kg DDA (FIG. 20)), the “number of Th1CD4+ cells infiltrated into tumor side lymph nodes” value was “increases”, the “number of Treg cells infiltrated into tumor side lymph nodes” value was “decreases” and the “number of cytotoxic CD8 T cells infiltrated into tumor side lymph nodes” value is given as “increases”. Besides, the “LXRβ dependence of priming of T cells inside tumor side lymph nodes” value in the data set with tumor side lymph nodes (shLXRβ vs LXRβ expressing tumors (FIG. 20)) is “dependent of the LXRβ”. In addition, in data set [3], the “production of exosome secreted into the media” value is on record as “also observed”. The “concentration from which differentiation of Th0 into Th1 is increased” value in data set [4] (DDA added at day 0, Th1 polarizing conditions, 96 h, CD4+Tbet+IFNg+) is no less than 1 nM. Besides, the Th2 differentiation result in data set [4] (DDA added at day 0, Th2 polarizing conditions) was “no effect”. The “concentration from which differentiation of Th0 into Th17 is increased” value in data set [4] (DDA added at day 0, Th17 polarizing conditions, 96 h) is no less than 100 nM. The Treg differentiation result in data set [4] (DDA added at day 0, Treg polarizing conditions) is given as “no effect”. In addition, in data set [4] (DDA added at day 4 for 24 h), the “concentration from which differentiation of Th0 into Th1 is increased” value is no less than 1 nM, the “differentiation into Th2” value is reported as “no effect” and the “differentiation into Th17” value is reported as “no effect”. In data set [4] (DDA added at day 4 for 24 h (FIG. 2)), the “differentiation of Th0 into Treg” value was “inhibits”. The “activated phenotype of CD4 T cells (CD44 at their surface)” value in data set [4] (day 4, data not shown) is reported as “upregulation of CD44”.
